# Patent publication US20190134005A1 (BioMarin Pharmaceutical Inc., priority 2016, published 2019)
# Target: T1, human CGT (Homo sapiens, UniProt Q16880)
# T1 sequence (Q16880 21-541): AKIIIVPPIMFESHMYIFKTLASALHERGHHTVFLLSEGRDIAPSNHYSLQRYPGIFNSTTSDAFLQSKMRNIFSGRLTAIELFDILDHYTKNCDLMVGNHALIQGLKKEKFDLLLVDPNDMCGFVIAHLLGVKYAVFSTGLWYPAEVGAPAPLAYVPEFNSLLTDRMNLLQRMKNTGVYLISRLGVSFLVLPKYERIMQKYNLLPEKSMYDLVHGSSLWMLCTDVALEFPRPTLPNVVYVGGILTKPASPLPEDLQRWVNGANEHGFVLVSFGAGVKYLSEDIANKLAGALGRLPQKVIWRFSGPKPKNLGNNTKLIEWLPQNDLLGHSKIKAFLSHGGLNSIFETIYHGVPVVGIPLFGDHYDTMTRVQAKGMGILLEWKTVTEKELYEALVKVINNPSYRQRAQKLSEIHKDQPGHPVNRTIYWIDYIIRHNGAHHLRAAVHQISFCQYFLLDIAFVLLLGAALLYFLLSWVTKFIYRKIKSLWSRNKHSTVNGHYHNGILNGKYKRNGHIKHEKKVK
# Test: Assay 1: CGT Enzymatic Assay (RapidFire/MS/MS, 0.01% Tween 80)
# Assay type: biochemical
# Details: Table 1, Compounds of Formula (I) and Formula (II); CGT enzymatic assay; read-out: IC50
row,SMILES,IC50 [µM]
1,"O=C1N(c2ccc(OC3CCCC3)cc2)C(=O)C(O)(c2ccccc2)N1c1ccc(OC2CCCC2)cc1 (stereo not shown) [Example 168, 1,3-bis(4-(cyclopentyloxy)phenyl)-5-hydroxy-5-phenylimidazolidine-2,4-dione]",> 50
2,"O=C1N(c2ccc(Br)cc2)C(=O)C(O)(c2ccc(OC3CCCCC3)cc2)N1c1ccc(Br)cc1 (stereo not shown) [Example 169, 1,3-bis(4-bromophenyl)-5-(4-(cyclohexyloxy)phenyl)-5-hydroxyimidazolidine-2,4-dione]",> 50
3,"CCCC1(C)N(c2ccc(Cl)cc2)C(=O)N(c2ccc(Cl)cc2)C1(O)c1cccc(OC(F)(F)F)c1 (stereo not shown) [Example 170, 1,3-bis(4-chlorophenyl)-4-hydroxy-5-methyl-5-propyl-4-(3-(trifluoromethoxy)phenyl)imidazolidin-2-one]",< 1
4,"O=C1N(c2ccc(Br)cc2)C(=O)C(O)(c2ccc(OC3CC3)c(Cl)c2)N1c1ccc(Br)cc1 (stereo not shown) [Example 171, 1,3-bis(4-bromophenyl)-5-(3-chloro-4-cyclopropoxyphenyl)-5-hydroxyimidazolidine-2,4-dione]",50 to 100
5,"O=C1N(c2ccc(Br)cc2)C(=O)C(O)(c2ccc(F)cc2)N1c1ccc(Br)cc1 (stereo not shown) [Example 172, 1,3-bis(4-bromophenyl)-5-(4-fluorophenyl)-5-hydroxyimidazolidine-2,4-dione]",10 to 50
6,"O=C1N(c2ccc(Br)cc2)C(=O)C(O)(c2ccc(N3CCCCC3)cc2)N1c1ccc(Br)cc1 (stereo not shown) [Example 173, 1,3-bis(4-bromophenyl)-5-hydroxy-5-(4-(piperidin-1-yl)phenyl)imidazolidine-2,4-dione]",> 50
7,"O=C1N(c2ccc(Br)cc2)C(=O)C(O)(c2ccc(OC3CCC3)cc2)N1c1ccc(Br)cc1 (stereo not shown) [Example 174, 1,3-bis(4-bromophenyl)-5-(4-cyclobutoxyphenyl)-5-hydroxyimidazolidine-2,4-dione]",> 50
8,"Cc1ccc(N2C(=O)N(c3ccc(C)cc3)C(O)(c3cccc(OC(F)(F)F)c3)C2(C)C)cc1 (stereo not shown) [Example 176, 4-hydroxy-5,5-dimethyl-1,3-di-p-tolyl-4-(3-(trifluoromethoxy)phenyl)-imidazolidin-2-one]",< 1
9,"CC1(C(F)(F)F)N(c2ccc(Cl)cc2)C(=O)N(c2ccc(Cl)cc2)C1(O)c1cccc(C#N)c1 (stereo not shown) [Example 177, 3-(1,3-bis(4-chlorophenyl)-4-hydroxy-5-methyl-2-oxo-5-(trifluoromethyl)imidazolidin-4-yl)benzonitrile]",< 1
10,"O=C1N(c2ccc(Br)cc2)C(=O)C(O)(c2ccc(-c3ccc(F)cc3)cc2)N1c1ccc(Br)cc1 (stereo not shown) [Example 178, 1,3-bis(4-bromophenyl)-5-(4′-fluoro-[1,1′-biphenyl]-4-yl)-5-hydroxyimidazolidine-2,4-dione]",> 50
11,"COc1cccc(C2(O)C(=O)N(c3ccc(Br)cc3)C(=O)N2c2ccc(Br)cc2)c1 (stereo not shown) [Example 179, 1,3-bis(4-bromophenyl)-5-hydroxy-5-(3-methoxyphenyl)imidazolidine-2,4-dione]",10 to 50
12,"CC1N(c2ccc(C#N)cc2)C(=O)N(c2ccc(C#N)cc2)C1(O)c1cccc(OC(F)(F)F)c1 (stereo not shown) [Example 180, 4,4′-(4-hydroxy-5-methyl-2-oxo-4-(3-(trifluoromethoxy)phenyl)imidazolidine-1,3-diyl)dibenzonitrile]",1 to 10
13,"O=C1N(c2cccc(Br)c2)C(=O)C(O)(c2ccccc2)N1c1cccc(Br)c1 (stereo not shown) [Example 181, 1,3-bis(3-bromophenyl)-5-hydroxy-5-phenylimidazolidine-2,4-dione]",50 to 100
14,"CCCCOc1ccc(C2(O)C(=O)N(c3ccc(Br)cc3)C(=O)N2c2ccc(Br)cc2)cc1 (stereo not shown) [Example 182, 1,3-bis(4-bromophenyl)-5-(4-butoxyphenyl)-5-hydroxyimidazolidine-2,4-dione]",> 50
15,"O=C1N(c2ccc(Br)cc2)C(=O)C(O)(c2ccc(OCC3CCCC3)cc2)N1c1ccc(Br)cc1 (stereo not shown) [Example 183, 1,3-bis(4-bromophenyl)-5-(4-(cyclopentylmethoxy)phenyl)-5-hydroxyimidazolidine-2,4-dione]",> 50
16,"O=C1N(c2ccc(Br)cc2)C(=O)C(O)(c2ccc(OCC3CC3)cc2)N1c1ccc(Br)cc1 (stereo not shown) [Example 184, 1,3-bis(4-bromophenyl)-5-(4-(cyclopropylmethoxy)phenyl)-5-hydroxyimidazolidine-2,4-dione]",> 50
17,"CC1(C)N(c2ccc(Cl)cc2)C(=O)N(c2ccc(Cl)cc2)C1(O)c1cncc(C#N)c1 (stereo not shown) [Example 186, 5-(1,3-bis(4-chlorophenyl)-4-hydroxy-5,5-dimethyl-2-oxoimidazolidin-4-yl)nicotinonitrile]",< 1
18,"CC1(C)N(c2ccc(Cl)cc2)C(=O)N(c2ccc(Cl)cc2)C1(O)c1cc(C#N)cc(C#N)c1 (stereo not shown) [Example 188, 5-(1,3-bis(4-chlorophenyl)-4-hydroxy-5,5-dimethyl-2-oxoimidazolidin-4-yl)isophthalonitrile]",< 1
19,"CC1(C)N(c2ccc(Cl)cc2)C(=O)N(c2ccc(Cl)cc2)C1(O)c1cccnc1 (stereo not shown) [Example 189, 1,3-bis(4-chlorophenyl)-4-hydroxy-5,5-dimethyl-4-(pyridin-3-yl)imidazolidin-2-one]",< 1
20,"CC1(c2cccc(C(F)(F)F)c2)C(O)N(c2ccc(Cl)cc2)C(=O)N1c1ccc(Cl)cc1 (stereo not shown) [Example 190, 1,3-bis(4-chlorophenyl)-5-hydroxy-4-methyl-4-(3-(trifluoromethyl)phenyl)imidazolidin-2-one]",< 1
21,"O=C1N(c2ccc(Cl)cc2)C(C2CCC2)C(O)(c2cccc(OC(F)(F)F)c2)N1c1ccc(Cl)cc1 (stereo not shown) [Example 191, 1,3-bis(4-chlorophenyl)-5-cyclobutyl-4-hydroxy-4-(3-(trifluoromethoxy)phenyl)imidazolidin-2-one]",< 1
22,"CC1(C)N(c2ccc(C(F)(F)F)cc2)C(=O)N(c2ccc(C(F)(F)F)cc2)C1(O)c1cccc(C#N)c1 (stereo not shown) [Example 192, 3-(4-hydroxy-5,5-dimethyl-2-oxo-1,3-bis(4-(trifluoromethyl)phenyl)-imidazolidin-4-yl)benzonitrile]",< 1
23,"CC1(O)C(=O)N(c2ccc(Br)cc2)C(=O)N1c1ccc(Br)cc1 (stereo not shown) [Example 193, 1,3-bis(4-bromophenyl)-5-hydroxy-5-methylimidazolidine-2,4-dione]",50 to 100
24,"N#Cc1cccc(C2(O)C(C3CCC3)N(c3ccc(Cl)cc3)C(=O)N2c2ccc(Cl)cc2)c1 (stereo not shown) [Example 194, 3-(1,3-bis(4-chlorophenyl)-5-cyclobutyl-4-hydroxy-2-oxoimidazolidin-4-yl)benzonitrile]",< 1

# The remaining lines, values ahead:
row,IC50 [µM],SMILES
1,< 1,"C[C@@H]1N(c2ccc(C#N)cc2)C(=O)N(c2ccc(C#N)cc2)C1(O)c1cccc(OC(F)(F)F)c1 (stereo partly drawn) [Example 180-1, 4,4′-((5S)-4-hydroxy-5-methyl-2-oxo-4-(3-(trifluoromethoxy)phenyl)imidazolidine-1,3-diyl)dibenzonitrile]"
2,< 1,"C[C@H]1N(c2ccc(C#N)cc2)C(=O)N(c2ccc(C#N)cc2)C1(O)c1cccc(OC(F)(F)F)c1 (stereo partly drawn) [Example 180-2, 4,4′-((5R)-4-hydroxy-5-methyl-2-oxo-4-(3-(trifluoromethoxy)phenyl)imidazolidine-1,3-diyl)dibenzonitrile]"
3,< 1,"N#Cc1cccc(C2(O)[C@H](C3CC3)N(c3ccc(Cl)cc3)C(=O)N2c2ccc(Cl)cc2)c1 (stereo partly drawn) [Example 187-1, 3-((5S)-1,3-bis(4-chlorophenyl)-5-cyclopropyl-4-hydroxy-2-oxoimidazolidin-4-yl)benzonitrile]"
4,< 1,"N#Cc1cccc(C2(O)[C@@H](C3CC3)N(c3ccc(Cl)cc3)C(=O)N2c2ccc(Cl)cc2)c1 (stereo partly drawn) [Example 187-2, 3-((5R)-1,3-bis(4-chlorophenyl)-5-cyclopropyl-4-hydroxy-2-oxoimidazolidin-4-yl)benzonitrile]"
5,> 50,"C[C@]1(c2cccc(C(F)(F)F)c2)C(O)N(c2ccc(Cl)cc2)C(=O)N1c1ccc(Cl)cc1 (stereo partly drawn) [Example 190-1, (4S)-1,3-bis(4-chlorophenyl)-5-hydroxy-4-methyl-4-(3-(trifluoromethyl)phenyl)imidazolidin-2-one]"
6,< 1,"C[C@@]1(c2cccc(C(F)(F)F)c2)C(O)N(c2ccc(Cl)cc2)C(=O)N1c1ccc(Cl)cc1 (stereo partly drawn) [Example 190-2, (4R)-1,3-bis(4-chlorophenyl)-5-hydroxy-4-methyl-4-(3-(trifluoromethyl)phenyl)imidazolidin-2-one]"
7,< 1,"O=C1N(c2ccc(Cl)cc2)[C@@H](C2CCC2)C(O)(c2cccc(OC(F)(F)F)c2)N1c1ccc(Cl)cc1 (stereo partly drawn) [Example 191-1, (5S)-1,3-bis(4-chlorophenyl)-5-cyclobutyl-4-hydroxy-4-(3-(trifluoromethoxy)phenyl)imidazolidin-2-one]"
8,< 1,"O=C1N(c2ccc(Cl)cc2)[C@H](C2CCC2)C(O)(c2cccc(OC(F)(F)F)c2)N1c1ccc(Cl)cc1 (stereo partly drawn) [Example 191-2, (5R)-1,3-bis(4-chlorophenyl)-5-cyclobutyl-4-hydroxy-4-(3-(trifluoromethoxy)phenyl)imidazolidin-2-one]"
9,< 1,"N#Cc1cccc(C2(O)[C@H](C3CCC3)N(c3ccc(Cl)cc3)C(=O)N2c2ccc(Cl)cc2)c1 (stereo partly drawn) [Example 194-1, 3-((5S)-1,3-bis(4-chlorophenyl)-5-cyclobutyl-4-hydroxy-2-oxoimidazolidin-4-yl)benzonitrile]"
10,< 1,"N#Cc1cccc(C2(O)[C@@H](C3CCC3)N(c3ccc(Cl)cc3)C(=O)N2c2ccc(Cl)cc2)c1 (stereo partly drawn) [Example 194-2, 3-((5R)-1,3-bis(4-chlorophenyl)-5-cyclobutyl-4-hydroxy-2-oxoimidazolidin-4-yl)benzonitrile]"
